Assays:
human GLP-1R = human GLP-1R (Homo sapiens, UniProt P43220); experiment: RIP1-CRE-Luc luciferase reporter; type: cell-based; details: HEK-GLP-1R cells transfected with RIP1-CRE-Luc; 4 h exposure
[1] = tested on: dipeptidyl peptidase IV (DPP-IV); details: ref [8],[9]; cited from earlier work
[2] = ref [8],[9]; cited from earlier work

Sequence of human GLP-1R (P43220 24-463): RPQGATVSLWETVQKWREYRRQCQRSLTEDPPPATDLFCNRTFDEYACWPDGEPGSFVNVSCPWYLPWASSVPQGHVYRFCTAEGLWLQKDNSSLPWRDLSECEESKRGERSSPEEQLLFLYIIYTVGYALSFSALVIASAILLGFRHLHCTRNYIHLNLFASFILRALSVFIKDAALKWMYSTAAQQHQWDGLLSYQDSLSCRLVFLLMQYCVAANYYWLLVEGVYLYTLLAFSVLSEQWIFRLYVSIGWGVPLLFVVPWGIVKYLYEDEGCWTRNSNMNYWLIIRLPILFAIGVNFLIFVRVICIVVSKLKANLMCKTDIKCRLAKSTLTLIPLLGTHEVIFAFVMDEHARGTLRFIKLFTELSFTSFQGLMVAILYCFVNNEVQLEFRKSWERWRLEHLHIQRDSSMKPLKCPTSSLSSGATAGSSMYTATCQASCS

Molecule	luciferase response (in words) (human GLP-1R)	t1/2, degradation by DPP-IV [1]	fraction of secreted GLP-1 surviving intact to the systemic circulation [2]
CC[C@H](C)[C@H](NC(=O)[C@H](Cc1ccccc1)NC(=O)[C@H](CCC(=O)O)NC(=O)[C@H](CCCCNC(=O)OC[C@H]1O[C@H](n2cnc3cc(C)c(C)cc32)[C@H](O)[C@@H]1OP(=O)(O)O[C@H](C)CNC(=O)CC[C@@]1(C)/C2=C(\C)C3=N/C(=C\C4=NC(=C(/C)C5=N[C@@](C)([C@H](N2)[C@@H]1CC(N)=O)[C@@](C)(CC(N)=O)[C@@H]5CCC(N)=O)/[C@@](C)(CC(N)=O)[C@@H]4CCC(N)=O)C(C)(C)[C@@H]3CCC(N)=O)NC(=O)[C@H](C)NC(=O)[C@H](C)NC(=O)[C@H](CCC(N)=O)NC(=O)CNC(=O)[C@H](CCC(=O)O)NC(=O)[C@H](CC(C)C)NC(=O)[C@H](Cc1ccc(O)cc1)NC(=O)[C@H](CO)NC(=O)[C@H](CO)NC(=O)[C@@H](NC(=O)[C@H](CC(=O)O)NC(=O)[C@H](CO)NC(=O)[C@@H](NC(=O)[C@H](Cc1ccccc1)NC(=O)[C@@H](NC(=O)CNC(=O)[C@H](CCC(=O)O)NC(=O)[C@H](C)NC(=O)[C@@H](N)Cc1c[nH]cn1)[C@@H](C)O)[C@@H](C)O)C(C)C)C(=O)N[C@@H](C)C(=O)N[C@@H](Cc1c[nH]c2ccccc12)C(=O)N[C@@H](CC(C)C)C(=O)N[C@H](C(=O)N[C@@H](CCCNC(=N)N)C(=O)NCC(=O)N[C@@H](CCCNC(=N)N)C(N)=O)C(C)C [compound 1]	concentration-dependent response		
glucagon-like peptide-1 (7–36) amide [GLP-1]		1 to 2 min	10–15%
cyanocobalamin [B12]	did not produce any response		
